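All cell lines were grown in 96-well plates and treated with compound for 48 hours. Abbreviation: GI50, concentration required for 50% inhibition of growth. TGI: total growth inhibition.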
Legend:
Assay in all cases: NCI tumour cell line growth inhibition, 48 h
MDA-N = test system: MDA-N
SF-539 CNS = test system: SF-539 CNS
MOLT-4 leukemia = test system: MOLT-4 leukemia
LOX IMVI melanoma = test system: LOX IMVI melanoma
UACC-257 melanoma = test system: UACC-257 melanoma
T-47D breast = test system: T-47D breast
OVCAR-5 ovarian = test system: OVCAR-5 ovarian
NCI/ADR-RES ovarian = test system: NCI/ADR-RES ovarian
NCI-H226 lung = test system: NCI-H226 lung
SNB-75 CNS = test system: SNB-75 CNS

Row | SMILES | TGI (MDA-N) | TGI (SF-539 CNS) | TGI (MOLT-4 leukemia) | TGI (LOX IMVI melanoma) | TGI (UACC-257 melanoma) | TGI (T-47D breast) | TGI (OVCAR-5 ovarian) | TGI (NCI/ADR-RES ovarian) | TGI (NCI-H226 lung) | TGI (SNB-75 CNS) | GI50 (SF-539 CNS) | GI50 (T-47D breast) | GI50 (MOLT-4 leukemia) | GI50 (LOX IMVI melanoma) | GI50 (UACC-257 melanoma) | GI50 (OVCAR-5 ovarian) | GI50 (NCI/ADR-RES ovarian) | GI50 (NCI-H226 lung) | GI50 (SNB-75 CNS)
1 | CC1=NN(c2cccc(Cl)c2)C2(SCC(=O)N2c2nc3ccccc3s2)/C1=C\c1cccs1 (stereo unspecified) | 52.4 µM | 16.1 µM | 30.4 µM | 66.5 µM | 64 µM | > 100 µM | 56.7 µM | 48.9 µM | 50.7 µM | 47.9 µM |  |  |  |  |  |  |  |  | 
2 | CCn1c(-c2ccc(N=NNc3ccc(-c4n[nH]c(=S)n4CC)cc3)cc2)n[nH]c1=S | > 100 µM |  | 6.28 µM | > 100 µM | > 100 µM | 4.35 µM |  | > 100 µM | 5.86 µM | 6.92 µM |  |  |  |  |  |  |  |  | 
3 | O=C(O)C1C2CCC(O2)C1C(=O)Nc1cccc2cccnc12 (stereo unspecified) | > 100 µM |  |  | > 100 µM | > 100 µM | > 100 µM | > 100 µM | > 100 µM |  | > 100 µM |  |  |  |  |  |  |  |  | 
4 | NCCCCc1cc(O)c2c(c1O)C(=O)c1ccccc1C2=O | 28.6 µM | 21.8 µM | 10.1 µM | 21.2 µM | 33.4 µM | 43.3 µM | 28.5 µM | 30.5 µM | 19.2 µM |  |  |  |  |  |  |  |  |  | 
5 | CC1=CC(=O)c2ccccc2C1=O | 2.37 µM | 11.9 µM | 5.15 µM | 5.72 µM | 9.08 µM | 5.33 µM | 26.7 µM | 30.2 µM | 31 µM | 22.1 µM |  |  |  |  |  |  |  |  | 
6 | COc1cc2c(ccc3c4cc(OC)c(OC)cc4c[n+](C)c23)cc1O |  | 28.7 µM | 19.2 µM | > 75 µM | > 75 µM |  | > 34.5 µM | > 75 µM | 9.14 µM | 16.4 µM |  |  |  |  |  |  |  |  | 
7 | O=C(OCN1C(=O)C2C3C=CC(C2C1=O)C1C2C(=O)N(COC(=O)C4CCCN4)C(=O)C2C31)C1CCCN1 (stereo unspecified) |  | > 100 µM | > 95.3 µM | > 64.5 µM | > 100 µM |  | > 100 µM |  | > 100 µM | > 100 µM |  |  |  |  |  |  |  |  | 
8 | C[C@H](CCC(=O)O)[C@H]1CC[C@@]2(C)[C@@H]3C(=O)C[C@H]4C(C)(C)[C@@H](O)CC[C@]4(C)[C@H]3C(=O)C[C@]12C | > 100 µM | > 100 µM | > 100 µM | > 100 µM | > 100 µM | > 100 µM | > 100 µM | > 100 µM | > 100 µM | > 100 µM |  |  |  |  |  |  |  |  | 
9 | CCN(CC(=O)O)C(=O)c1cccnc1 | > 100 µM |  | > 100 µM | > 100 µM | > 100 µM | > 100 µM | > 100 µM | > 100 µM |  | > 100 µM |  |  |  |  |  |  |  |  | 
10 | Fc1ccc(C(OCCN2CCC3CCC(C2)N3C/C=C/c2ccco2)c2ccc(F)cc2)cc1 (stereo unspecified) | 25.9 µM | 28.4 µM | 20.4 µM | 24.2 µM | 17.4 µM | 20.8 µM |  | 22.4 µM | 28.8 µM | 30 µM |  |  |  |  |  |  |  |  | 
11 | O=c1[nH]nc(NNc2ccccc2)c2nnn(C3CCCCC3)c12 | > 100 µM |  | > 100 µM | > 100 µM | > 100 µM |  | > 100 µM | > 100 µM |  |  |  |  |  |  |  |  |  |  | 
12 | CCCNC(=O)CCC(C)C1CCC2C3C(C[C@H](OC(C)=O)[C@]12C)[C@@]1(C)CCC2(C[C@H]1C[C@H]3OC(C)=O)OOC1(CC[C@]3(C)C4C[C@H](OC(C)=O)[C@]5(C)C(C(C)CCC(=O)NCCC)CCC5C4[C@H](OC(C)=O)C[C@@H]3C1)OO2 (stereo partly specified) | > 100 µM | > 100 µM | > 100 µM | > 100 µM | > 100 µM | > 100 µM | > 100 µM | > 100 µM | > 84.7 µM | > 69.5 µM | > 82.2 µM | > 100 µM |  |  |  |  |  |  | 
13 | COc1ccc(C(=O)/C=C/c2cccc([N+](=O)[O-])c2)c(OC)c1 |  | 3.09 µM | 3.88 µM | 1.94 µM | > 50 µM | > 50 µM | > 50 µM | > 50 µM | 7.77 µM | > 50 µM | 1.18 µM | 1.93 µM | 1.17 µM | 0.895 µM | > 50 µM | 1.56 µM | 1.53 µM | 1.65 µM | 1.61 µM
14 | Cc1nn(-c2ccccc2)c(C)c1/C=N/N=C1\SCC(=O)N1c1ccccc1 | 59.6 µM | 67.2 µM | > 100 µM | 48.1 µM | 88.2 µM | > 100 µM | > 100 µM | 54.4 µM | 66.5 µM | 55 µM |  |  |  |  |  |  |  |  | 
15 | Clc1cc2c(cc1Cl)CC(NCCN1CCCC1)CC2 (stereo unspecified) | 14.3 µM | 28 µM | 60 µM | 27.2 µM | 21.3 µM | 25.5 µM | 29.6 µM | 27.8 µM | 32.1 µM |  |  |  |  |  |  |  |  |  | 
16 | C(=N\NC1=NCCN1)/c1ccc(-c2cn3cc(/C=N/NC4=NCCN4)ccc3n2)cc1 | > 100 µM | > 100 µM | > 37.4 µM | > 52.5 µM | > 100 µM | > 100 µM | > 100 µM | > 100 µM | > 100 µM | > 100 µM |  |  |  |  |  |  |  |  | 
17 | O=C(/C=C/c1ccccc1)NNC(=O)c1c(Cl)c(Cl)c(Cl)c(Cl)c1-c1nc2ccccc2[nH]1 | 45.4 µM | > 100 µM | > 100 µM | 59.6 µM | 99.1 µM | 60.6 µM | > 100 µM | 64.9 µM | > 100 µM | 59.2 µM |  |  |  |  |  |  |  |  | 

— PubChem BioAssay (NCI)
